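Grown in 96-well plates, cells were treated for 48 hours with each compound at five concentrations. Insufficient inhibition: endpoint recorded as highest concentration tested. At the GI50, growth is halved.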 Activity calls are given as the source filed them. Cut-off read from the data, not from the text of the source: active = GI50 up to about 1.1 µM and inactive = higher.
How the values were obtained:
Assay in all cases: DTP human tumour cell line panel, 48 h
786-0 = tested on: 786-0
A498 = tested on: A498
A549 = tested on: A549
ACHN = tested on: ACHN
CAKI-1 = tested on: CAKI-1
COLO 205 = tested on: COLO 205
DLD-1 = tested on: DLD-1
DMS-273 = tested on: DMS-273
EKVX = tested on: EKVX
HCC 2998 = tested on: HCC 2998
HCT-116 = tested on: HCT-116
HCT-15 = tested on: HCT-15
HL-60 = tested on: HL-60
HOP-18 = tested on: HOP-18
HOP-62 = tested on: HOP-62
HOP-92 = tested on: HOP-92
HT-29 = tested on: HT-29
IGROV-1 = tested on: IGROV-1
KM-20L2 = tested on: KM-20L2
LOX IMVI = tested on: LOX IMVI
LXFL 529 = tested on: LXFL 529
M14 = tested on: M14
M19-MEL = tested on: M19-MEL
MOLT-4 = tested on: MOLT-4
Malme-3M = tested on: Malme-3M
NCI-H226 = tested on: NCI-H226
NCI-H23 = tested on: NCI-H23
NCI-H460 = tested on: NCI-H460
NCI-H522 = tested on: NCI-H522
OVCAR-3 = tested on: OVCAR-3
OVCAR-4 = tested on: OVCAR-4
OVCAR-5 = tested on: OVCAR-5
OVCAR-8 = tested on: OVCAR-8
RPMI-8226 = tested on: RPMI-8226
RXF 393 = tested on: RXF 393
RXF 631 = tested on: RXF 631
SF-268 = tested on: SF-268
SF-295 = tested on: SF-295
SF-539 = tested on: SF-539
SK-MEL-28 = tested on: SK-MEL-28
SK-MEL-2 = tested on: SK-MEL-2
SK-MEL-5 = tested on: SK-MEL-5
SK-OV-3 = tested on: SK-OV-3
SN12C = tested on: SN12C
SNB-75 = tested on: SNB-75
SNB-78 = tested on: SNB-78
SW-620 = tested on: SW-620
TK-10 = tested on: TK-10
U-251 = tested on: U-251
UACC-257 = tested on: UACC-257
UACC-62 = tested on: UACC-62
UO-31 = tested on: UO-31
CCRF-CEM = tested on: CCRF-CEM
DMS-114 = tested on: DMS-114
K562 = tested on: K562
KM12 = tested on: KM12
SNB-19 = tested on: SNB-19
SR = tested on: SR
XF498 = tested on: XF498

Measured: GI50

[O-][Cl+3]([O-])([O-])[O-].c1ccc(-c2[o+]c(-c3ccccc3)c(-c3ccccc3)c(-c3ccccc3)c2-c2ccccc2)cc1
> 100 µM: HCT-15
inactive: 786-0 > 100 µM | A498 > 100 µM | A549 > 100 µM | ACHN > 100 µM | CAKI-1 > 100 µM | COLO 205 > 100 µM | DLD-1 > 100 µM | DMS-273 > 100 µM | EKVX > 100 µM | HCC 2998 > 100 µM | HCT-116 > 100 µM | HL-60 > 100 µM | HOP-18 > 100 µM | HOP-62 > 100 µM | HOP-92 > 100 µM | HT-29 > 100 µM | IGROV-1 > 100 µM | KM-20L2 > 100 µM | LOX IMVI > 100 µM | LXFL 529 > 100 µM | M14 > 100 µM | M19-MEL > 100 µM | MOLT-4 44.7 µM | Malme-3M > 100 µM | NCI-H226 > 100 µM | NCI-H23 > 100 µM | NCI-H460 > 100 µM | NCI-H522 > 100 µM | OVCAR-3 > 100 µM | OVCAR-4 > 100 µM | OVCAR-5 > 100 µM | OVCAR-8 > 100 µM | RPMI-8226 24.9 µM | RXF 393 12 µM | RXF 631 > 100 µM | SF-268 > 100 µM | SF-295 > 100 µM | SF-539 > 100 µM | SK-MEL-28 > 100 µM | SK-MEL-2 > 100 µM | SK-MEL-5 > 100 µM | SK-OV-3 > 100 µM | SN12C > 100 µM | SNB-75 > 100 µM | SNB-78 > 100 µM | SW-620 > 100 µM | TK-10 > 100 µM | U-251 > 100 µM | UACC-257 > 100 µM | UACC-62 > 100 µM | UO-31 > 100 µM

COC(=O)C1CCc2nnc(-c3cccnc3)n21 (stereo unspecified)
> 100 µM: HCT-15
inactive: 786-0 > 100 µM | A498 > 100 µM | A549 > 100 µM | ACHN > 100 µM | CAKI-1 > 100 µM | CCRF-CEM > 100 µM | COLO 205 > 100 µM | DLD-1 > 100 µM | DMS-114 > 100 µM | DMS-273 > 100 µM | EKVX > 100 µM | HCC 2998 > 100 µM | HCT-116 > 100 µM | HL-60 > 100 µM | HOP-18 > 100 µM | HOP-62 > 100 µM | IGROV-1 > 100 µM | K562 > 100 µM | KM-20L2 > 100 µM | KM12 > 100 µM | LXFL 529 > 100 µM | M14 > 100 µM | M19-MEL > 100 µM | MOLT-4 > 100 µM | Malme-3M > 100 µM | NCI-H226 > 100 µM | NCI-H460 > 100 µM | NCI-H522 > 100 µM | OVCAR-3 > 100 µM | OVCAR-4 > 100 µM | OVCAR-8 > 100 µM | RPMI-8226 > 100 µM | RXF 393 > 100 µM | RXF 631 > 100 µM | SF-268 > 100 µM | SF-539 > 100 µM | SK-MEL-28 > 100 µM | SK-MEL-2 > 100 µM | SK-MEL-5 > 100 µM | SK-OV-3 > 100 µM | SN12C > 100 µM | SNB-19 > 100 µM | SNB-75 > 100 µM | SNB-78 > 100 µM | SR > 100 µM | SW-620 > 100 µM | TK-10 > 100 µM | U-251 > 100 µM | UACC-257 > 100 µM | UACC-62 > 100 µM | UO-31 > 100 µM

CC1(C)CC(/C=C2/OC(=O)c3ccccc32)=C(C#N)C(=O)O1
inactive: 786-0 > 100 µM | A549 > 100 µM | ACHN > 100 µM | CAKI-1 > 100 µM | CCRF-CEM > 100 µM | COLO 205 > 100 µM | DLD-1 > 100 µM | DMS-273 > 100 µM | EKVX > 100 µM | HCT-116 > 100 µM | HOP-62 > 100 µM | HT-29 > 100 µM | IGROV-1 > 100 µM | K562 > 100 µM | KM-20L2 > 100 µM | KM12 > 100 µM | LOX IMVI > 100 µM | LXFL 529 > 100 µM | M14 > 100 µM | M19-MEL > 100 µM | MOLT-4 > 100 µM | Malme-3M > 100 µM | NCI-H226 > 100 µM | NCI-H23 > 100 µM | NCI-H460 > 100 µM | NCI-H522 > 100 µM | OVCAR-3 > 100 µM | OVCAR-4 18.6 µM | OVCAR-5 > 100 µM | OVCAR-8 > 100 µM | RPMI-8226 > 100 µM | RXF 631 > 100 µM | SF-268 > 100 µM | SF-295 > 100 µM | SF-539 > 100 µM | SK-MEL-28 > 100 µM | SK-MEL-2 > 100 µM | SK-MEL-5 > 100 µM | SK-OV-3 > 100 µM | SN12C > 100 µM | SNB-19 > 100 µM | SNB-75 > 100 µM | SNB-78 > 100 µM | SR > 100 µM | SW-620 > 100 µM | U-251 > 100 µM | UACC-257 > 100 µM | UACC-62 > 100 µM | UO-31 > 100 µM | XF498 > 100 µM
active: HCC 2998 0.294 µM
> 100 µM: HCT-15

CN1CCCN2CCN(C)CCCN(CC1)CC2
inactive: 786-0 > 100 µM | A498 > 100 µM | CAKI-1 > 100 µM | CCRF-CEM > 100 µM | COLO 205 > 100 µM | DLD-1 > 100 µM | DMS-114 > 100 µM | DMS-273 > 100 µM | HCC 2998 > 100 µM | HCT-116 > 100 µM | HL-60 > 100 µM | HOP-62 > 100 µM | HOP-92 > 100 µM | IGROV-1 > 100 µM | K562 > 100 µM | LOX IMVI > 100 µM | LXFL 529 > 100 µM | M14 > 100 µM | M19-MEL > 100 µM | MOLT-4 > 100 µM | Malme-3M > 100 µM | NCI-H226 > 100 µM | NCI-H23 > 100 µM | NCI-H460 > 100 µM | NCI-H522 > 100 µM | OVCAR-4 > 100 µM | RPMI-8226 > 100 µM | RXF 631 > 100 µM | SF-268 > 100 µM | SF-539 > 100 µM | SK-MEL-28 > 100 µM | SK-MEL-2 > 100 µM | SK-OV-3 > 100 µM | SN12C > 100 µM | SNB-75 > 100 µM | SNB-78 > 100 µM | SR > 100 µM | UACC-62 > 100 µM | UO-31 > 100 µM | XF498 > 100 µM
